Our source for the IC50 values is BindingDB's records for doi:10.3109/14756360903179435 (Jamia Hamdard, 2010).

The target in experiment [1] is T1, Prostaglandin G/H synthase 1 (Ovis aries, UniProt P05979).
T1 sequence (P05979 whole entry): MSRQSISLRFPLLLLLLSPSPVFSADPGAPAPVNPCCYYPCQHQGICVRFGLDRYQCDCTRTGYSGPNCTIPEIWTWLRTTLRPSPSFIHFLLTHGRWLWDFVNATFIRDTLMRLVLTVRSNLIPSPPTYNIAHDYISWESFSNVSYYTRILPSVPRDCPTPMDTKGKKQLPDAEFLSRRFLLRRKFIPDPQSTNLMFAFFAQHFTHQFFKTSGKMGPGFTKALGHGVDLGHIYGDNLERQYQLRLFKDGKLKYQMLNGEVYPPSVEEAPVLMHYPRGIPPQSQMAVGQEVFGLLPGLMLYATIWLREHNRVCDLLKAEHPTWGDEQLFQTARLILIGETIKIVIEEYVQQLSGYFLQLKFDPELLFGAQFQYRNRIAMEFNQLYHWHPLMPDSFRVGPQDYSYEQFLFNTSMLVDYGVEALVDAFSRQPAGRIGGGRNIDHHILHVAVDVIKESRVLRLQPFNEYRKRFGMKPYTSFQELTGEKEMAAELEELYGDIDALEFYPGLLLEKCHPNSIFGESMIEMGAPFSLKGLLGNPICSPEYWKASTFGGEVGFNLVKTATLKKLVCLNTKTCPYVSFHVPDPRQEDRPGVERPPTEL
Description: In Vitro Cyclo-Oxygenase Inhibition Assay. The procedure:
(§1) Inhibition of the enzymes was determined using an enzyme immunoassay (EIA) kit (catalog no. 560101, Cayman Chemical, Ann Arbor, MI, USA) according to the methodology described by Jashim Uddin et al. [Jashim Uddin et al., Bioorg. Med. Chem., 12:5929-40].

For experiment [2], the target named is T2, Prostaglandin G/H synthase 2 (Ovis aries, UniProt P79208).
T2 sequence (P79208 whole entry): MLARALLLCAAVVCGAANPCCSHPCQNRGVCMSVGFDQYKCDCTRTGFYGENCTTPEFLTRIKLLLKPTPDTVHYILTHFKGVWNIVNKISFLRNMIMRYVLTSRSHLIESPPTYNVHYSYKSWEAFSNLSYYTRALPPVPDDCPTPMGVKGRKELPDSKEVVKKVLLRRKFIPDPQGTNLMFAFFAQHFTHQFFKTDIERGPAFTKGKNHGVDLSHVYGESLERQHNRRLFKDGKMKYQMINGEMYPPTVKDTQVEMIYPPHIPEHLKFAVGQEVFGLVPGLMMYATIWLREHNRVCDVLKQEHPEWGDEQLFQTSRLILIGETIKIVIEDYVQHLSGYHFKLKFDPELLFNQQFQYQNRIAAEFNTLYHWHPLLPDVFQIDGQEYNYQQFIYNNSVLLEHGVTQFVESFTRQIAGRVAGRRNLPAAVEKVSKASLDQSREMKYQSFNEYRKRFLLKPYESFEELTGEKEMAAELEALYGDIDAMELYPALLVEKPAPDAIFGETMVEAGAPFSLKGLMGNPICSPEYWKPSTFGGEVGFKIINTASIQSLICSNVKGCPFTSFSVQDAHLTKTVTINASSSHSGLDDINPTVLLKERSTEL
Description: In Vitro Cyclo-Oxygenase Inhibition Assay. The procedure: as §1

The structures appear in SMILES notation.

Regarding `CC(C)Cc1ccc(C2=C/C(=C\c3c(Cl)cccc3Cl)C(=O)O2)cc1` [3-(2,6-Dichlorobenzylidene)-5-(4-isobutylphenyl)-2(3H)-furanone (13)], the IC50 (usually the point on the concentration scale where inhibition reaches its midpoint) was determined as 47.6 µM in experiment [1] and 1.8 µM in experiment [2].
On to `CC(C)Cc1ccc(C2=C/C(=C\c3ccc(F)cc3)C(=O)O2)cc1` [3-(4-Fluorobenzylidene)-5-(4-isobutylphenyl)-2(3H)-furanone (9)], for which the concentration for half-maximal inhibition (IC50) in experiment [1] was determined as 68.3 µM; in experiment [2] it was 3.8 µM.
For the molecule `CC(C)Cc1ccc(C2=C/C(=C\c3ccccc3Cl)C(=O)O2)cc1` [3-(2-Chlorobenzylidene)-5-(4-isobutylphenyl)-2(3H)-furanone (3)], the half-inhibitory concentration (IC50) in experiment [1] turned out to be 52.4 µM; in experiment [2], 2.4 µM.
For `CC(C)Cc1ccc(C2=C/C(=C\c3ccc(Cl)cc3Cl)C(=O)O2)cc1` [3-(2,4-Dichlorobenzylidene)-5-(4-isobutylphenyl)-2(3H)-furanone (14)] the same measures were 48.2 µM and 2.2 µM.
